In patent US8058243B2, “Method for treating a brain cancer with ifenprodil” (HSC Research and Development Limited Partnership, priority 2006, dated 2011):
Counter-ions that a name gives are not always drawn. Like-named read-outs stand apart in the source and are kept apart here.

Test system: murine neural precursor cells (neurosphere cultures)
Experiment: HTS of LOPAC library against secondary neurosphere cultures, MTT proliferation assay at 3 μM, day 7 (z score, P value)
Assay type: cell-based, mouse
[1] = LOPAC library screen at 3 μM, secondary neurosphere cultures, MTT
[2] = LOPAC screen, neurosphere MTT proliferation, 3 μM, day 7
[3] = yes/no: significantly inhibited neurosphere proliferation (P<0.01) in primary screen
[4] = LOPAC library screen, 3 μM, MTT, neurosphere cultures
[5] = LOPAC primary screen, neurosphere MTT proliferation, 3 μM, day 7
[6] = yes/no: significantly inhibited neurosphere proliferation (P<0.01) in the primary screen
[7] = primary LOPAC screen, 3 μM, MTT, neurosphere proliferation
[8] = yes/no: significantly inhibited neurosphere proliferation in the primary screen
[9] = LOPAC library screen, 3 μM, MTT, secondary neurosphere cultures, day 7
[10] = yes = significantly inhibited neurosphere proliferation (P<0.01) in the primary screen
[11] = yes/no: significantly inhibited neurosphere proliferation in primary screen
[12] = LOPAC library screen at 3 μM, MTT, secondary neurosphere cultures, screened in singlets

CCCCCCCCCCCCCCCCCCOCC(COP(=O)([O-])OCC[N+](C)(C)C)OC (centres unmarked) [ET-18-OCH3]
Z Score [1]: −0.6259
Z score [2]: −0.626
Activity [3]: no

CC(CN1c2ccccc2Sc2ccccc21)N(C)C (centres unmarked) [Promethazine hydrochloride]
Z Score [4]: 0.4746
Z score [5]: 0.475
Activity [6]: no

CC(=O)NCCc1c[nH]c2ccccc12 [N-Acetyltryptamine]
Z Score: 1.02
Z score [7]: 1.020
Activity [8]: no

Cn1cc(C(=O)OCC2CCN(CCNS(C)(=O)=O)CC2)c2ccccc21 [GR 113808]
Z Score: 0.992
Z score [5]: 0.992
Activity [6]: no

CN1C(=O)CCS(=O)(=O)C1c1ccc(Cl)cc1 (centres unmarked) [Chlormezanone]
Z Score: −0.9465
Z score [2]: −0.947
Activity [3]: no

Cl.N[C@@H](CCl)C(=O)O [beta-Chloro-L-alanine hydrochloride]
Z Score: −1.39
Z score [2]: −1.390
Activity [3]: no

CCCn1c(=O)c2[nH]c(-c3ccc(OCC(=O)NCCN)cc3)nc2n(CCC)c1=O [Xanthine amine congener]
Z Score [4]: 0.001164
Z score [7]: 0.001
Activity [8]: no

C[C@H](NC(=O)/C(C#N)=C/c1ccc(O)c(O)c1)c1ccccc1 [Tyrphostin AG 835]
Z Score: 2.23
Z score [7]: 2.230
Activity [8]: no

COC(=O)C1=C(C)NC(C)=C(C(=O)OC)C1c1ccccc1[N+](=O)[O-] [Nifedipine]
Z Score (168 h, 3 µM): −0.2937
Z score (168 h, 3 µM): −0.294

CCn1ccnc1CC1COc2ccccc2O1 (centres unmarked) [Imiloxan hydrochloride]
Z Score [1]: −0.9879
Z score [5]: −0.988
Activity [3]: no

CC(C)N(CCC(C(N)=O)(c1ccccc1)c1ccccn1)C(C)C (centres unmarked) [Disopyramide phosphate]
Z Score [4]: −0.07187
Z score [5]: −0.072
Activity [6]: no

Nc1nc(OCc2ccccc2)c2nc[nH]c2n1 [O6-benzylguanine]
Z Score [1]: −1.177
Z score [7]: −1.177
Activity [8]: no

O=C(O)C1CCCNC1 (racemic) [(±)-Nipecotic acid]
Z score: −0.722

NCCC(=O)NCCc1c[nH]cn1 [Carcinine dihydrochloride]
Z Score (168 h, 3 µM): −1.023
Z score (168 h, 3 µM): −1.023
Activity [8]: no

O=C1NCC2(CCN(CCc3ccccc3)CC2)O1 [Fenspiride hydrochloride]
Z Score [1]: −0.5762
Z score [5]: −0.576
Activity [3]: no

CCCCCN(CCCCC)C(=O)C(CCC(=O)O)NC(=O)c1ccc(Cl)c(Cl)c1 (centres unmarked) [Lorglumide sodium]
Z Score [9]: −2.092
Z score [5]: −2.092
Activity [10]: no

S(−)-Timolol maleate
Z Score [1]: −0.7675
Z score [5]: −0.767
Activity [11]: no

CNCCC(Oc1ccccc1OC)c1ccccc1 (centres unmarked) [Nisoxetine hydrochloride]
Z Score: 0.8336
Z score: 0.834

O=C1c2c(O)ccc(O)c2C(=O)c2c(NCCNCCO)ccc(NCCNCCO)c21 [Mitoxantrone]
Z Score [9]: −10.21
Z score [5]: −10.205
Activity [10]: yes

O=c1[nH]cc(F)c(=O)[nH]1 [5-Fluorouracil]
Z Score [9]: −7.749
Z score [5]: −7.749
Activity [10]: yes

CCCN(CCc1ccccc1)C1CCc2c(O)cccc2C1.Cl (racemic) [(±)-PPHT hydrochloride]
Z score [5]: −1.915
Activity [6]: no

C=C[C@H]1C[N@@]2CC[C@H]1C[C@@H]2[C@@H](O)c1ccnc2ccc(OC)cc12 [Quinidine sulfate]
Z Score [9]: −1.93
Z score [5]: −1.930
Activity [11]: no

Nc1ncnc2c1ncn2[C@@H]1O[C@H](COP(=O)(O)CP(=O)(O)OP(=O)([O-])[O-])[C@H](O)C1O.[Li+].[Li+] (some centres unmarked)
Z Score [9]: −1.29
Z score [5]: −1.290
Activity [10]: no

Cc1nc2c(OCc3ccccc3)cccn2c1CC#N [SCH-28080]
Z Score: 2.107
Z score [2]: 2.107
Activity [3]: no

Br.CN=c1nc(-c2ccccc2)n(-c2ccccc2)s1 [SCH-202676 hydrobromide]
Z Score: 0.3599
Z score [5]: 0.360
Activity [11]: no

CCNC(=O)N1CCN(CCCC(c2ccc(F)cc2)c2ccc(F)cc2)CC1 [Amperozide hydrochloride]
Z Score (168 h, 3 µM): −0.4126
Z score (168 h, 3 µM): −0.413
Activity [10]: no

N[C@@H](COP(=O)(O)O)C(=O)O [O-Phospho-L-serine]
Z Score [4]: 0.5472
Z score [5]: 0.547
Activity [11]: no

Cl.Cl.N=C(N)c1ccc(N)cc1 [4-Aminobenzamidine dihydrochloride]
Z Score: −1.287
Z score [5]: −1.287
Activity [10]: no

Cl.N=C(N)NC(=N)Nc1cccc(Cl)c1 [1-(m-Chlorophenyl)-biguanide hydrochloride]
Z Score: 1.795
Z score [5]: 1.795
Activity [6]: no

CCN(CC)c1ncnc2c1ncn2[C@@H]1O[C@H](COP(=O)([O-])OP(=O)([O-])C(Br)(Br)P(=O)([O-])O)[C@@H](O)[C@H]1O.[Na+].[Na+].[Na+] [ARL 67156 trisodium salt]
Z Score: −0.168
Z score [7]: −0.168
Activity [8]: no

N[C@@H](Cc1ccc(O)c(O)c1)C(=O)O [L-3,4-Dihydroxyphenylalanine]
Z Score (168 h, 3 µM): 2.44
Z score (168 h, 3 µM): 2.440
Activity [3]: no

Oc1ccc(C2CNCCc3c2cc(O)c(O)c3Cl)cc1 (centres unmarked) [Fenoldopam bromide]
Z Score [4]: 0.05219
Z score [5]: 0.052
Activity [3]: no

O=c1[nH]c2ccccc2n1CCCN1CCN(C(c2ccccc2)c2ccccc2)CC1 [Oxatomide]
Z Score [4]: 0.5957
Z score [5]: 0.596
Activity [11]: no

Br.Cc1cccc(C2CN(C)CCc3c2cc(O)c(O)c3Cl)c1 (centres unmarked) [SKF 83959 hydrobromide]
Z Score: −1.357
Z score [5]: −1.357
Activity [11]: no

(−)-Cotinine
Z Score [1]: −0.5099
Z score [2]: −0.510
Activity [3]: no

CCCN1CCC[C@@H]2Cc3nc(N)ncc3C[C@H]21 [Quinelorane dihydrochloride]
Z score [5]: −1.567
Activity [11]: no

O=S(=O)(c1cccc2c(I)cccc12)N1CCCNCC1 [ML-7]
Z Score: −11.27
Z score [5]: −11.274
Activity [6]: yes

CC(C)Cc1ccc(C(C)C(=O)O)cc1 (centres unmarked) [(B1)-Ibuprofen]
Z Score: −0.2623

COCCc1ccc(OCC(O)CNC(C)C)cc1.O=C(O)C(O)C(O)C(=O)O (racemic) [(±)-Metoprolol (+)-tartate]
Z score [5]: −0.269
Activity [10]: no

NC(=O)c1ncn([C@@H]2O[C@H](CO)[C@@H](O)[C@H]2O)c1O [Mizoribine]
Z Score [12]: 1.642

Cc1ncc(CNC(=O)N(CCCl)N=O)c(N)n1 [Nimustine hydrochloride]
Z Score: −0.6524

CNCCCC12CCC(c3ccccc31)c1ccccc12 [Maprotiline hydrochloride]
Z Score [1]: −0.3615
Z score [5]: −0.361
Activity [10]: no

O=c1cc(O)cc(/C=C/c2ccc(O)c(O)c2)o1 [Hispidin]
Z Score (168 h, 3 µM): 0.8896
Z score (168 h, 3 µM): 0.890
Activity [3]: no

S-(−)-Lisuride
Z Score: −0.1473
Z score: −0.147

Clc1ccc(C(c2ccc(Cl)cc2)n2cc[n+](CC(OCc3ccc(Cl)cc3Cl)c3ccc(Cl)cc3Cl)c2)cc1 (centres unmarked) [Calmidazolium chloride]
Z Score (168 h, 3 µM): −8.582
Z score (168 h, 3 µM): −8.582
Activity [10]: yes

Cc1cn[nH]c1.Cl [4-Methylpyrazole hydrochloride]
Z Score: 1.042
Z score [5]: 1.042
Activity [10]: no

O=c1ccc2ccc(O)c(O)c2o1 [Daphnetin]
Activity: no
Z Score (168 h, 3 µM): −0.9798
Z score (168 h, 3 µM): −0.980

Histamine, R(−)-alpha-methyl-, dihydrochloride
Z Score [9]: −1.469
Z score [5]: −1.469
Activity [3]: no

COc1ccc2[nH]c3c(c2c1)CCNC3
Z score [5]: −2.661
Activity [10]: yes

O=C(O)[C@@H]1C[C@H](C(=O)O)N1 [cis-Azetidine-2,4-dicarboxylic acid]
Z Score (168 h, 3 µM): −2.251
Z score (168 h, 3 µM): −2.251
Activity [8]: no

COc1ccc2c(c1)[C@]13CCCC[C@@H]1[C@H](C2)N(C)CC3
Z Score: −0.7932
Z score [5]: −0.793
Activity [6]: no

CC(=O)O[C@H]1C(=O)[C@@]2(C)[C@H]([C@H](OC(=O)c3ccccc3)[C@]3(O)C[C@H](OC(=O)[C@H](O)[C@@H](NC(=O)c4ccccc4)c4ccccc4)C(C)=C1C3(C)C)[C@]1(OC(C)=O)CO[C@@H]1C[C@@H]2O [Taxol]
Z Score [9]: −11.27
Z score [5]: −11.274
Activity [10]: yes

CNC(=O)[C@H]1O[C@@H](n2cnc3c(NCc4cccc(I)c4)ncnc32)[C@H](O)[C@@H]1O [IB-MECA]
Z Score [1]: −1.089
Z score [5]: −1.089
Activity [3]: no

CC(=O)OCC1=C(C(=O)O)N2C(=O)[C@@H](NC(=O)Cc3cccs3)[C@H]2SC1 [Cephalothin sodium]
Z Score [12]: 2.264
Z score [5]: 2.264
Activity [6]: no

NCC(CC(=O)O)c1ccc(Cl)cc1 (racemic) [(±)-Baclofen]
Z score [2]: −1.069
Activity [3]: no

CC(=O)O.CNC(=N)NCCC[C@H](N)C(=O)O [NG-Monomethyl-L-arginine acetate]
Z Score [9]: −1.386
Z score [5]: −1.386
Activity [10]: no
